# The supplement of paper PMC10307832
# What was measured:
# Bortezomib = compound: CC(C)C[C@H](NC(=O)[C@H](Cc1ccccc1)NC(=O)c1cnccn1)B(O)O [Bortezomib]; assay: relative viability (nuclei count vs DMSO), 5 days (fraction); higher = more cells survive
# In short: (§1)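 Cells of lung cancer lines were placed in 1536-well plates and kept overnight at 37 °C. Pinning then delivered five library-drug doses (not always all listed), spaced by √10, onto plates anchored with vehicle, and the cells were left 5 days without changing medium. One step fixed, permeabilised and stained them with Hoechst, and MetaXpress counted nuclei in 4× images. Viability, as a median over plates, is treated-well nuclei divided by vehicle-well nuclei, with acceptance only at control CV below 25% and at least one doubling.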
# [1] = compound: CC1=CC(=NN1)NC2=CC(=NC(=N2)/C=C/C3=CC=CC=C3)N4CCN(CC4)C; assay: as above
# In short: as §1
Cell Line,relative viability (Bortezomib; 0.0002 µM),relative viability (Bortezomib; 0.000632 µM),relative viability (Bortezomib; 0.002 µM),"relative viability (Bortezomib; 0.002 µM, anchor plate)",relative viability (Bortezomib; 0.006325 µM),relative viability (Bortezomib; 0.02 µM),relative viability ([1]; 0.08 µM),relative viability ([1]; 0.253 µM),relative viability ([1]; 0.8 µM),relative viability ([1]; 2.53 µM),relative viability ([1]; 8 µM)
NCI-H727,0.919,1.06,0.897,0.936,0.647,0.171,0.835,0.688,0.924,0.441,0.374
NCI-H1944,0.926,0.94,0.917,,0.854,0.283,0.987,0.98,0.953,0.657,0.465
NCI-H1437,0.928,1,1,0.542,0.272,0.173,1.02,1.06,1.03,0.757,0.346
NCI-H441,0.936,0.964,0.575,0.555,0.132,0.139,1.01,1.01,0.931,0.249,0.143
EMC-BAC-2,0.938,0.961,0.999,1.11,0.543,0.2,0.939,1.03,0.886,0.477,0.246
NCI-H647,0.865,0.812,0.55,0.962,0.0435,0.0339,0.868,1.05,0.935,0.14,0.056
CAL-12T,0.93,0.971,0.957,1.03,0.49,0.155,0.977,0.946,0.928,0.339,0.187
NCI-H1792,0.754,0.838,0.904,0.956,0.602,0.277,0.957,0.934,0.813,0.338,0.0683
H3255,0.928,1.06,0.951,0.816,0.274,0.291,0.966,1.05,1.04,0.931,0.473
HCC-78,0.874,0.901,0.815,0.52,0.512,0.329,0.904,1.14,1.08,0.701,0.27
EBC-1,0.993,1,0.417,0.576,0.0892,0.0983,0.945,0.966,0.953,0.475,0.178
NCI-H2405,0.96,0.907,0.988,0.939,0.293,0.18,0.979,0.889,1.06,0.458,0.201
A549,0.914,0.981,0.939,,0.0802,0.0522,0.909,1.04,0.92,0.29,0.0371
NCI-H3122,1,0.957,1.07,1,0.825,0.149,1.01,0.857,0.982,0.956,0.308
NCI-H1563,0.971,1,0.826,0.858,0.564,0.442,1.03,1.01,0.999,0.752,0.509
HCC-44,0.95,0.968,0.987,0.895,0.869,0.173,0.986,1.01,0.933,0.86,0.18
PC-3 [JPC-3],0.905,0.998,1.04,0.82,0.358,0.231,1.03,1.07,1.09,1.04,0.726
NCI-H1993,0.903,0.935,1.01,1.19,0.493,0.502,0.91,0.882,1.27,0.571,0.423
LOU-NH91,0.828,0.825,0.497,0.518,0.307,0.365,0.928,1.08,0.991,0.806,0.424
SK-MES-1,0.98,0.959,1.05,,0.319,0.185,0.998,1.09,0.941,0.475,0.162
LCLC-103H,0.982,0.94,1.01,1.05,0.92,0.278,0.998,1.07,1.02,0.835,0.694

Cell Line,relative viability (Bortezomib; 0.0002 µM),relative viability (Bortezomib; 0.000632 µM),relative viability (Bortezomib; 0.002 µM),"relative viability (Bortezomib; 0.002 µM, anchor plate)",relative viability (Bortezomib; 0.006325 µM),relative viability (Bortezomib; 0.02 µM),relative viability ([1]; 0.08 µM),relative viability ([1]; 0.253 µM),relative viability ([1]; 0.8 µM),relative viability ([1]; 2.53 µM),relative viability ([1]; 8 µM)
NCI-H1915,0.948,1,1.09,0.96,0.91,0.0999,1,0.96,0.96,0.705,0.22
IA-LM,0.871,0.991,0.833,0.817,0.0932,0.0256,0.852,1.07,1.1,0.866,0.231
NCI-H1734,0.929,1.01,0.944,0.945,0.15,0.119,0.939,0.913,0.799,0.328,0.155
NCI-H2170,0.96,0.824,1.07,,0.815,0.177,0.971,1.04,0.868,0.77,0.266
Calu-6,0.998,0.965,0.974,0.961,0.118,0.0868,0.967,0.991,0.889,0.236,0.141
HCC-15,0.909,1.07,0.996,1.01,0.549,0.0945,1.01,1,1.01,0.524,0.1
SK-LU-1,1.02,0.969,0.778,1.22,0.212,0.162,1.05,1.09,0.962,0.455,0.143
NCI-H2023,1.02,0.9,1,1.01,0.139,0.0632,1.01,1.02,0.859,0.108,0.0691
HCC-366,1.03,0.974,1.05,1.02,1.01,0.045,0.954,1.03,0.985,0.452,0.0338
NCI-H1355,0.911,0.909,1.08,1.23,0.668,0.152,0.96,0.965,0.955,0.647,0.159
NCI-H1650,0.751,0.805,0.2,0.206,0.161,0.167,0.86,1.05,0.972,0.185,0.101
SW 1573,0.963,0.981,0.947,1.02,0.11,0.0607,0.935,0.952,0.826,0.299,0.0971
NCI-H661,0.952,0.99,0.989,0.807,0.719,0.228,0.986,0.958,1.03,0.708,0.356
LU99A,,0.737,1.03,1.14,0.797,0.303,1.02,0.883,0.786,0.426,0.269
LCLC-97TM1,0.943,0.729,1.08,0.744,0.439,0.118,0.911,0.963,0.912,0.504,0.121
LC-2-ad,0.877,0.815,0.99,1.01,0.257,0.198,1.02,0.996,0.799,0.303,0.177
NCI-H1395,0.949,0.866,0.807,,0.332,0.293,0.916,1.04,0.882,0.431,0.279
NCI-H2228,0.929,0.974,0.638,1.06,0.103,0.123,0.846,1.18,0.782,0.179,0.0666
NCI-H1648,0.771,0.769,0.529,,0.622,0.312,0.972,1.04,0.983,0.655,0.484
HOP-62,1.02,0.985,0.925,0.791,0.477,0.076,1.03,1.11,1.04,0.825,0.367
NCI-H2347,1,0.936,1.03,1.08,0.615,0.339,0.966,1.11,1.1,0.891,0.525

Cell Line,relative viability (Bortezomib; 0.0002 µM),relative viability (Bortezomib; 0.000632 µM),relative viability (Bortezomib; 0.002 µM),"relative viability (Bortezomib; 0.002 µM, anchor plate)",relative viability (Bortezomib; 0.006325 µM),relative viability (Bortezomib; 0.02 µM),relative viability ([1]; 0.08 µM),relative viability ([1]; 0.253 µM),relative viability ([1]; 0.8 µM),relative viability ([1]; 2.53 µM),relative viability ([1]; 8 µM)
NCI-H2087,0.9,1.08,0.726,0.79,0.0629,0.0618,0.959,0.761,1.09,0.277,0.13
EPLC-272H,0.8,0.652,0.871,0.902,0.66,0.105,0.819,1.09,0.908,0.404,0.35
LXF-289,0.987,0.999,1.04,0.994,0.185,0.0884,0.993,1.02,0.964,0.863,0.435
COR-L23,0.97,0.948,0.964,0.971,0.0694,0.071,1.03,1.1,0.976,0.237,0.116
RERF-LC-KJ,0.995,0.949,1.02,1.11,0.366,0.239,0.979,0.964,0.932,0.555,0.279
NCI-H1755,1.01,0.96,1.02,0.963,0.378,0.224,1.03,1.05,1.02,0.722,0.443
PC-14,0.957,0.939,0.942,0.871,0.188,0.0669,1,1.07,0.968,0.427,0.104
NCI-H322M,0.922,,0.918,1.24,0.458,0.421,0.951,0.969,0.847,0.413,0.281
NCI-H1666,1.01,1.04,0.963,0.855,0.493,0.317,0.973,0.894,1.09,0.847,0.594
A-427,0.841,0.905,1.05,0.998,0.233,0.169,1.05,0.908,0.942,0.286,0.172
NCI-H358,0.904,0.675,0.874,,0.131,0.162,0.847,0.92,0.787,0.203,0.11
NCI-H1651,0.992,0.969,0.727,0.943,0.173,0.121,1.03,0.992,0.939,0.712,0.288
NCI-H1623,0.955,1.01,0.766,,0.325,0.273,0.956,1.13,1.01,0.843,0.542
NCI-H1299,0.992,0.955,1.03,1,0.507,0.167,1.04,1.02,1.03,0.719,0.328
NCI-H520,1.08,0.956,0.654,0.622,0.172,0.169,0.975,1.04,0.871,0.261,0.126
NCI-H522,0.947,0.745,1.02,,0.638,0.415,0.917,0.89,0.962,0.554,0.444
201T,0.98,0.953,0.959,1.09,0.854,0.351,1.02,1.06,0.928,0.892,0.354
NCI-H460,0.971,0.97,1.03,1.09,0.542,0.0702,1.01,1.03,1.01,0.597,0.0321
NCI-H2342,1.1,0.948,1.02,,1.03,0.748,0.913,0.938,1.1,0.916,0.366
NCI-H596,0.918,0.894,0.718,1.05,0.241,0.211,1,0.998,0.879,0.614,0.256
